Laboratory results: patent US4243678A, “Acylhydrocarbylaminoalkanoic acids, compositions and uses” (Byk Gulden Lomberg Chemische Fabrik GmbH, priority 1977, dated 1981)
Like-named read-outs stand apart in the source and are kept apart here.

Columns and labels:
[1] = Antihepatotoxic effect: duration of hexobarbital sleep of the rat after liver damage by CCl4; conditions: rat, in vivo
Description: (§1) The compounds to be tested are administered 1 hour prior to the administration of CCl4 orally in a liquid volume of 10 ml/kg.
(§2) The antihepatotoxic effect of the compounds to be tested (sodium salts in aqueous solution) is determined by the reduction of the prolongation of sleeping period caused by the CCl4 liver cell damage in the groups treated, as compared with the prolongation of the sleeping period of the CCl4 control group (=100%). […]

liver damage by CCl4 = assay: as above; conditions: Rattus norvegicus, po; for ED25: read-out: ED25 antihepatotoxic effect (shortens hexobarbital narcosis by 25%)
Description: as §1, §2

[2] = Determination of toxicity (lethal action on the mouse after intraperitoneal application); format: in vivo; conditions: in vivo, ip
Description: The toxicity investigations are carried out on female NMRI mice (body weight 22 to 26 g). The animals (5 animals per dose) are given food and water ad lib. Different doses of the substances are administered intraperitoneally. The duration of observation is 14 days. The LD50, i.e. the dose at which 50% of the animals die, is determined graphically from the dose/effect curve.

[3] = Influence on pancreatic secretion of the narcotized rat; format: in vivo, rat (male Sprague-Dawley); conditions: in vivo, LD50 mouse i.p. / ED50 rat i.d.
From the text: (§3) Male Sprague-Dawley rats (body weight from 250 to 300 g) are narcotized with 1.2 g/kg urethane i.m. Then the abdominal cavity is opened medially, the bile duct is ligatured shortly above the place where it leads into the duodenum and also near to the hepatic duct, and both sections are catheterized towards the liver.
(§4) As in the rat all the pancreatic ducts lead out into the central section of the bile duct; it is possible in this way to discharge the pancreatic secretion separately from the distal (ligatured) section and the bile separately from the proximal section of the bile duct.
(§5) The quantities of pancreatic juice and bile juice obtained are measured at intervals of 30 minutes over a period from 2 hours before to 3 hours after the intraduodenal (V. jugularis externa) administration of the compounds to be tested (quantity of liquid administered 5 ml/kg).
(§6) The body temperature of the animals is maintained at 36° to 38° C. by means of electric blankets and radiation; the temperature is monitored rectally.
(§7) The liquid volumes of the 30-minute fractions after the administration of the substance are related in each case to the quantity of bile or pancreatic juice secreted prior to the application of the substance (=100%, mean of the last two measurements). The maximum percentage increase in the pancreatic or bile secretion is represented in dependence upon dose, and from this the ED50 is determined by interpolation.

pancreatic secretion = assay: as above; format: in vivo, rat (male Sprague-Dawley); conditions: 0.5 h
From the text: as §3, §4, §5, §6, §7

[4] = test system: glucose formation from lactate and pyruvate in isolated perfused liver; assay: Inhibition of the formation of glucose from lactate and pyruvate in the isolated perfused rat liver; set-up: species or system rat (male Sprague-Dawley); conditions: for Glucose formation, % change: isolated perfused liver of fasting rats; for ED50 inhibition of formation of glucose from lactate and pyruvate: from 4 concentrations, 0.02 to 1.00 mmol/liter
Description: For this purpose young male Sprague-Dawley rats (160 to 200 g) are used. The rats are kept in cages of up to 5 animals in a temperature-controlled room (23° C.) with a fixed day/night rhythm (12/12 hours).
Food is withheld from the animals for from 20 to 22 hours prior to the operation. They are allowed to take water ad lib. The operation and the perfusion of the liver are carried out using the technique of R. Scholz et al. [Eur. J. Biochem. 38 (1973) 64 to 72]. The perfusion liquid used is Krebs-Henseleit bicarbonate buffer (pH 7.4), which is saturated with an oxygen/carbon dioxide mixture (95/5) and contains 1.6 mmol/liter of L-lactate and 0.2 mmol/liter of pyruvate. The perfusion liquid is pumped into the liver via a cannula inserted into the portal vein. The effluent perfusion liquid is collected via a cannula inserted into the Vena cava. The liver is perfused for about 2 hours. The test compounds are infused for 16 minutes each from the 32nd to the […] after the perfusion in increasing concentrations (0.02 to 1.00 mmol/liter).
Samples of the effluent perfusion liquid are collected at one-minute intervals and analyzed for glucose, lactate and pyruvate (using standard enzymatic methods). The percentages shown in Table VIII relate to the condition occurring before and after the administration of the compounds, the changes caused solely by lactate and pyruvate being set as being equal to 100%.

[5] = TQ LD50/ED25, antihepatotoxic effect, LD50 mouse i.p. / ED25 rat p.o., Table XI
[6] = Table X, read-out: TQ LD50/ED50, pancreatic secretion
[7] = narcotized rat, i.d., liquid volume, 30 minute fraction, Table X, read-out: ED50 pancreatic secretion (dose which brings about an increase in pancreatic secretion by a maximum of 50%)
[8] = TQ LD50/ED50, antihepatotoxic effect, LD50 mouse i.p. / ED50 rat p.o., Table XI
[9] = read-out: ED50 antihepatotoxic effect (shortens hexobarbital narcosis by 50%)
[10] = TQ LD50/ED25, antihepatotoxic effect, LD50 mouse i.p. / ED25 rat p.o., Table V
[11] = Table I, read-out: TQ (LD50/ED50), pancreatic secretion
[12] = Rattus norvegicus, read-out: ED50 pancreatic secretion (dose which brings about an increase in the pancreatic secretion by a maximum of 50%)
[13] = Table VII, read-out: TQ [LD50/ED50], pancreatic secretion
[14] = narcotized rat, i.d., liquid volume, 30 min fraction, Table VII, read-out: ED50 pancreatic secretion (dose which brings about an increase in pancreatic secretion of a maximum of 50%)
[15] = TQ (LD50/ED50), antihepatotoxic effect, LD50 mouse i.p. / ED50 rat p.o., Table III
[16] = read-out: ED50 antihepatotoxic effect (dose which shortens the hexobarbital narcosis by 50%)
[17] = 0.2 mmole/liter in the perfusate, Table VIII

Compound | selectivity ratio [1, 5] | ED25 (liver damage by CCl4) [mg/kg] | LD50 at 336 h ([2]; mouse i.p., Table X) [mg/kg] | selectivity ratio [3, 6] | ED50 (pancreatic secretion; [7]) [mg/kg] | LD50 at 336 h ([2]; mouse, Table I) [mg/kg] | selectivity ratio [3, 11] | ED50 (pancreatic secretion; [12]) [mg/kg] | also measured
COc1ccc(Cl)cc1C(=O)N(CCCC(=O)O)c1cccc2ccccc12 [Serial No. 44, 4-{5-chloro-2-methoxy-[N-(α-naphthyl)]benzamido}butyric acid] | ~9 | ~30 | 270 | > 270 | < 1 | – | – | – | –
CC(=O)N(CCCC(=O)O)c1cccc2ccccc12 [Serial No. 39, 4-[N-(α-naphthyl)acetamido]butyric acid] | > 75 | < 10 | 750 | ~500 | ~1.5 | – | – | – | selectivity ratio [1, 8]: 15; ED50 (liver damage by CCl4; [9]): 50 mg/kg
O=C(O)CCCCCN(C(=O)c1ccc(Cl)cc1)c1cccc2ccccc12 [compound 48] | ~22.9 | ~7 | 160 | ~160 | ~1 | – | – | – | –
CC(C)C(=O)N(CCCCCC(=O)O)c1ccccc1-c1ccccc1 [Serial No. 34, 6-[N-(biphenyl-2-yl)isobutyramido]caproic acid] | – | < 30 | – | – | – | – | – | – | selectivity ratio [1, 10]: 8.7; LD50 at 336 h ([2]; mouse i.p., Table V): 260 mg/kg
O=C(O)CCCN(C(=O)c1ccc(Cl)cc1Cl)c1cccc2ccccc12 [Serial No. 41, 4-{2,4-dichloro-[N-(α-naphthyl)]benzamido}butyric acid] | 24 | 10 | 240 | 32 | 7.5 | – | – | – | selectivity ratio [1, 8]: 9.2; ED50 (liver damage by CCl4; [9]): 26 mg/kg
O=C(O)CCCN(Cc1ccccc1)C(=O)c1ccc(Cl)cc1 [Serial No. 15, N-(p-chloro)benzoyl-4-benzylaminobutyric acid] | – | – | – | – | – | 350 | 233 | 1.5 | –
COc1ccc(Cl)cc1C(=O)N(CCCC(=O)O)c1ccccc1-c1ccccc1 [Serial No. 33, 4-[2-methoxy-5-chloro-N-(biphenyl-2-yl)benzamido]butyric acid] | – | – | – | – | – | – | – | – | LD50 at 336 h ([2]; mouse i.p., Table VII): 170 mg/kg; selectivity ratio [3, 13]: 85; ED50 (pancreatic secretion; [14]): 2 mg/kg
CC(=O)N(CCCC(=O)O)C1CCCc2ccccc21 (centres unmarked) [compound 49] | > 20 | < 10 | > 200 | ≥ 40 | ~5 | – | – | – | –
O=C(O)CCCN(C(=O)c1ccc(Cl)cc1)C12CC3CC(CC(C3)C1)C2 [Serial No. 6, N-(p-chloro)benzoyl-4-(1-adamantyl)aminobutyric acid] | – | – | – | – | – | 200 | 200 | 1 | –
C#CC1(N(CCCC(=O)O)C(C)=O)CCCCC1 [Serial No. 8, N-acetyl-4-[(1-ethynylcyclohexyl-1)-amino]butyric acid] | – | – | – | – | – | > 1000 | > 100 | 10 | –
O=C(O)CCCN(C(=O)c1ccc(Cl)cc1)C(c1ccccc1)c1ccccc1 [Serial No. 12, N-(p-chloro)benzoyl-4-benzhydrylaminobutyric acid] | – | – | – | – | – | 250 | ~2500 | ~0.1 | selectivity ratio [1, 15]: 25; ED50 (liver damage by CCl4; [16]): 10 mg/kg
O=C(O)CCCCN(C(=O)c1ccc(Cl)cc1)c1cccc2ccccc12 [Serial No. 47, 5-{p-chloro-[N-(α-naphthyl)]benzamido}valeric acid] | – | – | 170 | 85 | 2 | – | – | – | Glucose formation, % change ([4]; 0.2 mmol/liter in the perfusate, Table XIII): -86%; ED50 inhibition of formation of glucose from lactate and pyruvate ([4]; Table XIII): 31 mg/L
CC(c1ccccc1)N(CCCCCC(=O)O)C(=O)c1ccc(Cl)cc1 (centres unmarked) [Serial No. 13, N-(p-chloro)benzoyl-6-(1-phenylethylamino)caproic acid] | – | – | – | – | – | 220 | 110 | 2 | –
CC(C)(C)CC(C)(C)N(CCCC(=O)O)C(=O)c1ccc(Cl)cc1 [Serial No. 7, N-(p-chloro)benzoyl-4-[(1,1,3,3-tetramethylbutyl)amino]butyric acid] | – | – | – | – | – | 220 | 110 | 2 | –
O=C(O)CCCN(C(=O)c1ccc(Cl)cc1)c1ccc(C2CCCCC2)cc1 [Serial No. 37, 4-[p-chloro-N-(1',2',3',4',5',6'-hexahydrobiphenyl-4-yl)benzamido]butyric acid] | – | ≤ 10 | – | – | – | – | – | – | selectivity ratio [1, 10]: ≥ 15; LD50 at 336 h ([2]; mouse i.p., Table V): ~150 mg/kg; selectivity ratio [3, 13]: ~100; ED50 (pancreatic secretion; [14]): 1.5 mg/kg
O=C(O)CCCN(C(=O)c1ccc(Cl)cc1)C1CCCCCCC1 [Serial No. 18, N-(p-chloro)benzoyl-4-cyclooctylaminobutyric acid] | – | – | – | – | – | 150 | 60 | 2.5 | selectivity ratio [1, 15]: 18.8; ED50 (liver damage by CCl4; [16]): 8 mg/kg
O=C(O)CCCCCN(C(=O)c1ccc(Cl)cc1Cl)c1ccccc1-c1ccccc1 [Serial No. 29, 6-[2,4-dichloro-N-(biphenyl-2-yl)benzamido]caproic acid] | – | – | – | – | – | – | – | – | Glucose formation, % change [4, 17]: -93%; ED50 inhibition of formation of glucose from lactate and pyruvate ([4]; Table VIII): 23 mg/L; LD50 at 336 h ([2]; mouse i.p., Table VII): ~250 mg/kg; selectivity ratio [3, 13]: ~147; ED50 (pancreatic secretion; [14]): 1.7 mg/kg
O=C(O)CCCCN(C(=O)c1ccc(Cl)cc1)c1ccccc1-c1ccccc1 [Serial No. 28, 5-[p-chloro-N-(biphenyl-2-yl)benzamido]valeric acid] | – | 3 | – | – | – | – | – | – | Glucose formation, % change [4, 17]: -89%; ED50 inhibition of formation of glucose from lactate and pyruvate ([4]; Table VIII): 25 mg/L; selectivity ratio [1, 10]: 46.7; selectivity ratio ([1]; TQ LD50/ED50, antihepatotoxic effect, LD50 mouse i.p. / ED50 rat p.o., Table V): 11.7; ED50 (liver damage by CCl4; [9]): 12 mg/kg; LD50 at 336 h ([2]; mouse i.p., Table V): 140 mg/kg
COc1ccc2cccc(N(CCCC(=O)O)C(=O)c3ccc(Cl)cc3)c2c1 [Serial No. 46, 4-{p-chloro-[N-(7-methoxy-1-naphthyl)]benzamido}butyric acid] | 17.1 | 7 | 120 | 400 | 0.3 | – | – | – | selectivity ratio [1, 8]: 7.5; ED50 (liver damage by CCl4; [9]): 16 mg/kg
O=C(O)CCCN(C(=O)c1cccc(C(F)(F)F)c1)c1cccc2ccccc12 [compound 42] | – | – | 160 | > 160 | < 1 | – | – | – | –
